Assay [1] deals with female stress-derived axillary odor. Kind of assay: Cross-adaptation of female stress-derived axillary odor (odor panel, magnitude estimation of perceived intensity). The note with it: for Magnitude of Reduction of Intensity of Female Stress-Derived Odor (FSDO), Males: female stress-derived odor perceived by men; for Magnitude of Reduction of Intensity of Female Stress-Derived Odor (FSDO), Females: female stress-derived odor perceived by women. It counts as in vivo, human. The source says: (§1) The procedure relies upon an individual constantly sniffing an adapting agent, such as a fragrance, and occasionally a test odorant. Perceived intensity of the test odorant is obtained by using psychophysical, magnitude-estimation procedures. These perceived intensities are obtained every 30 seconds over the test period, and are then compared with baseline perceived intensities obtained before the individual began sniffing the adapting agent. Throughout the testing we observe adaptation to the adapting agent. Results during trials with an inserted test odorant, such as the axillary odor used here, are believed to be reasonably predictive. If the perceived intensity of the test odorant decreases during the test, then the adapting agent cross-adapts the test odorant and becomes a cross-adapting agent. If the cross-adapting agent is itself not offensive, then the cross-adapting agent becomes a candidate for use in formulations in consumer products to ameliorate malodors, such as axillary odor or fecal/urine odors, and odors related to the female menstrual cycle.
(§2) Collection of secretions: Apocrine secretions obtained under stressed conditions provided the axillary odor that was used as the test odorant to evaluate the effectiveness of various adapting agents. Secretions were obtained from males (ages 20 to 60 years) and females (ages 20 to 40 years) in good health. […] Volunteers prepared their axillae for collection of apocrine secretions by refraining from deodorant use for 3 days and shaving their axillae the morning of the collection day.
(§3) Volunteers were rested in a supine position. The axillary regions were washed with isopropanol-soaked pads and injected intradermally with 1:10,000 adrenalin (in physiologic saline). This injection stimulated the secretion of apocrine gland secretions, which were collected in 10 μl pipettes, passed into 0.25 ml Eppendorf tubes, and stored on ice (or frozen for longer storage). The amount of secretion collected varied greatly with the individual subject (≦10 μl). The apocrine secretions from each volunteer were combined by consecutively washing each Eppendorf tube with 2×300 μl of doubly distilled water. This aqueous-apocrine fluid was transferred to a 5 ml round-bottomed flask for hydrolysis. X-N. Zeng, J. J. Leyden, J. G. Brand, A. I. Spielman, K. J. McGinley, G. Preti, An Investigation of Human Apocrine Gland Secretion for Axillary Odor Precursors, 18 J. Chem. Ecol. 1039-1055 (1992); X-N. Zeng, J. J. Leyden, A. I. Spielman and G. Preti Analysis of the characteristic human female axillary odors: Qualitative comparison to males. 22 J. Chem. Ecol. 237-257 (1996).
(§4) Production of odor: To produce quantities of stress-derived axillary odor for testing purposes, we hydrolyzed the apocrine secretion. The aqueous solution was refluxed for 20 min with 0.5 ml, 5% aqueous sodium hydroxide under a stream of nitrogen. The mixture was allowed to cool to room temperature, and then it was cooled in ice prior to being acidified with 6 N HCl to pH 2. The resulting axillary odor developed in the reaction mixture upon acidification was used as the test odorant. The axillary odors generated by this in vitro technique are analogous to the malodors produced by stressed individuals.
A separate panel of 24 subjects (12 males and 12 females) tested samples of female stress-derived axillary odor with potential cross-adapting agents, some of which were not included in Example 1 above. Some of the subjects assessing the effectiveness of cross-adaptation of male stress-derived axillary odor were also used in the experiment with female secretions. However, these two experiments were treated as independent events. All panel members were screened for adequate use of magnitude estimation and further trained in its use during two to three training sessions. […]

In assay [2] the test system is male stress-derived axillary odor. In words: Cross-adaptation of male stress-derived axillary odor (odor panel, magnitude estimation of perceived intensity). It counts as in vivo, human. The note with it: for Magnitude of Reduction of Intensity of Male Stress-Derived Odor (MSDO), Males: male stress-derived odor perceived by men; for Magnitude of Reduction of Intensity of Male Stress-Derived Odor (MSDO), Females: male stress-derived odor perceived by women.
Source text: as §1, §2, §3, §4
Sixteen (16) individuals (8 of each gender) served on an odor panel. Subjects ranged in age from 22 to 55 years (mean 32.7±10.6 s.d.), were not pregnant (by verbal report), and were all non-smokers. All panel members were screened for adequate use of magnitude estimation (some people have difficulties maintaining a ratio scale, i.e., when an odorant is half as strong as the previous, these people fail to provide a number that is half the previous estimate) and further trained in its use during 2-3 training sessions. All 16 subjects were tested with samples of male malodor compared to each of the potential cross-adapting agents. […]
Note: key: best: Best = Superior Cross-Adaptation; good: Good = Adequate Cross-Adaptation; poor: Poor = Ineffective Cross-Adaptation.

On to `CC(CO)CCCc1ccccc1` (centres unmarked) [Rosaphen ®, 2-methyl-5-phenylpentan-1-ol], for which, in assay [1], the “Magnitude of Reduction of Intensity of Female Stress-Derived Odor (FSDO), Males” value (shortened to “Magnitude of Reduction … (FSDO), Males”) is “good” and the “Magnitude of Reduction of Intensity of Female Stress-Derived Odor (FSDO), Females” value (“Magnitude of Reduction … (FSDO), Females” below) is reported as “poor”. Besides, in assay [2], the “Magnitude of Reduction of Intensity of Male Stress-Derived Odor (MSDO), Males” value (“Magnitude of Reduction … (MSDO), Males” below) was “best” and the “Magnitude of Reduction of Intensity of Male Stress-Derived Odor (MSDO), Females” value (“Magnitude of Reduction … (MSDO), Females” below) was “poor”.
Turning to `CC(C)=CC1CC(C)CCO1` (centres unmarked) [Rose Oxide hc, 4-methyl-2-(2-methyl-1-propenyl)tetrahydro-2H-pyran], in assay [1], the “Magnitude of Reduction … (FSDO), Males” value is reported as “good” and the “Magnitude of Reduction … (FSDO), Females” value is reported as “good”. Besides, in assay [2], the “Magnitude of Reduction … (MSDO), Males” value is “poor” and the “Magnitude of Reduction … (MSDO), Females” value is listed as “good”.
As for `CCC(=CCC1CC=C(C)C1(C)C)CO` (centres unmarked) [Sandranol ®, 2-ethyl-4-(2,2,3-trimethyl-3-cyclopenten-1-yl)-2-buten-1-ol], in assay [1], the “Magnitude of Reduction … (FSDO), Males” value was “good” and the “Magnitude of Reduction … (FSDO), Females” value is reported as “good”. Moreover, in assay [2], the “Magnitude of Reduction … (MSDO), Males” value is reported as “good” and the “Magnitude of Reduction … (MSDO), Females” value is given as “poor”.
`CC1=CC(C)C(C=O)CC1` (centres unmarked) [Vertocitral, 2,4-dimethyl-3-cyclohexene-1-carboxaldehyde]: in assay [1], the “Magnitude of Reduction … (FSDO), Males” value is reported as “best” and the “Magnitude of Reduction … (FSDO), Females” value is recorded as “best”. For the same compound, in assay [2], the “Magnitude of Reduction … (MSDO), Males” value was “good” and the “Magnitude of Reduction … (MSDO), Females” value is reported as “best”.
With `O=C1CCCCCCCCCCCCCCO1` [cpd Supra, oxacyclohexadecan-2-one], in assay [1], the “Magnitude of Reduction … (FSDO), Males” value is “good” and the “Magnitude of Reduction … (FSDO), Females” value is recorded as “good”. Moreover, in assay [2], the “Magnitude of Reduction … (MSDO), Males” value is reported as “poor” and the “Magnitude of Reduction … (MSDO), Females” value is reported as “poor”.
For the compound `CC=CC(=O)C1C(C)=CCCC1(C)C` (stereo not drawn) [α-Damascone, 1-(2,6,6-trimethyl-2-cyclohexen-1-yl)-2-buten-1-one], in assay [1], the “Magnitude of Reduction … (FSDO), Males” value is given as “poor” and the “Magnitude of Reduction … (FSDO), Females” value is recorded as “good”. Further, in assay [2], the “Magnitude of Reduction … (MSDO), Males” value was “poor” and the “Magnitude of Reduction … (MSDO), Females” value was “poor”.
Regarding l-carvone, in assay [1], the “Magnitude of Reduction … (FSDO), Males” value is on record as “good” and the “Magnitude of Reduction … (FSDO), Females” value is on record as “best”. In assay [2], the “Magnitude of Reduction … (MSDO), Males” value is listed as “best” and the “Magnitude of Reduction … (MSDO), Females” value is given as “best”.
As to oxacyclohexadecen-2-one [GLOBALIDE ®], in assay [1], the “Magnitude of Reduction … (FSDO), Males” value is “poor” and the “Magnitude of Reduction … (FSDO), Females” value is given as “good”. Besides, in assay [2], the “Magnitude of Reduction … (MSDO), Males” value is “good” and the “Magnitude of Reduction … (MSDO), Females” value was “poor”.
